Source: patent US6686496B1, “Treatment of myeloma” (University of Central Florida, priority 2001, dated 2004)

What was measured:
[1] = Solubility in solvents and water
[2] = Animal toxicity bioassay: acute toxicity, intraperitoneal injection, LD50 by Litchfield and Wilkinson; assay type: in vivo; details: both sexes, mouse, in vivo, ip, white mice, observed 14 days
Method: (§1) Acute toxicity was studied on white mice of both sexes with weight ranging between 18-26 grams under intraperitoneal injection of 2% solution of tested compound in starch (the compound was dissolved in starch slime and injected) on the basis of 0.1 ml of solution per 10 g of the animal weight. Each dose was tested on the group of 6 animals that were observed during 14 days period.

[3] = test system: human myeloma cells (ATCC CCL155); assay: Cytotoxicity assay: growth inhibition of CCL155 cells, MTS/PMS readout; assay type: cell-based; details: Table 1, approximately 48 hours with test compound, concentration not given
Method: The anticancer activity against human myeloma of the novel compounds (as earlier reported) was realized by the following procedure which determines the inhibitory effect of test samples on the growth of human myeloma cells.
[…]
(ATCC CCL155) The CCL155 cells are grown in RPMI 1640 media+20% Fetal bovine serum+4.5 g/L glucose+10 mM HEPES+1.0 mM sodium pyruvate+1% Antibiotic/Antimycotic for approximately 48 hours at 37° C./5% CO2 in the presence of the test compound.
Growth/Non-Growth of the cells (e.g., cell density) is determined using Promega's MTS/PMS assay system. MTS (3-(4,5-dimethylthiazol-2-yl)-5-(3-carboxymethoxyphenyl)-2-(4-sulfophenyl)-2H-tetrazolium, inner salt) is an aqueous compound that is reduced to soluble formazan by the presence of NADH formed by dehydrogenases present within the CCL155 cells. The absorbance of the formazan can be measured at 490 nm and is directly proportional to the number of living cells present in the culture. PMS (Phenazine Methosulfate) is added an electron coupling reagent and greatly increases the rate of reduction.
To facilitate a full understanding of the procedure the following definitions are offered:
Test wells—wells containing test sample and Diluted CCL155 cells
Test values—absorbance of test wells
Blank wells—wells containing test sample and CCL155 media (C155-01S); used to obtain background absorbance due to test sample
Blank values—absorbance of blank wells
Negative Control—maximal cell growth; results of test samples will be expressed as a percent of the Negative Control
Positive Control—known inhibitor of CCL155 cells; used to validate assay system
Matrix—solvent that the samples are prepared/diluted in […]
Blank values will be determined for each sample to account for any color contribution due to the sample itself. […] After completion of MTS/PMS reaction blank values will be subtracted from the test value to obtain a net absorbance that will be used to calculate cell density. […]
In order to establish the accuracy of this assay a Positive Control consisting of 50 μM Methotrexate […] of the Negative Control (CCL155 cells are somewhat resistant to methotrexate) is utilized.
In order to establish the accuracy of this assay a Positive Control consisting of 50 μM Methotrexate should show less than 75% of the net absorbance of the Negative Control is utilized.

white mice = assay: Animal toxicity bioassay: acute toxicity, intraperitoneal injection, LD50 by Litchfield and Wilkinson; assay type: in vivo; details: Table 1, observed 14 days
Method: as §1

Stability in solutions = assay type: physicochemical; details: solution heated or stored for a long time; forms OF-12
mice = details: cited from earlier work

Row | Structure (SMILES) | Solubility in DMSO, DMFA, dichloroethane, acetonitrile [1] | Solubility in water [1] | LD50 at 14 days [2] | Activity (ATCC CCL155) [3] | also measured
1 | COC(=O)/C(=C/C(=O)c1ccccc1)N/N=C(\c1ccccc1)c1ccc(N(C)C)cc1 [OF-10, 2-{N′-[(4-Dimethylamino-phenyl)-phenyl-methylene]-hydrazino}-4-oxo-4-phenyl-but-2-enoic acid methyl ester] | highly soluble | insoluble | > 1500 mg/kg | – | Solubility in chloroform [1]: highly soluble
2 | COC(=O)/C(=C/C(=O)c1ccccc1)N/N=C(\c1ccccc1)c1ccccc1Br [OF-09, 2-{N′-[(2-Bromo-phenyl)-phenyl-methylene]-hydrazino}-4-oxo-4-phenyl-but-2-enoic acid methyl ester] | highly soluble | insoluble | > 5000 mg/kg | – | –
3 | COC(=O)C(=CC(=O)C(C)(C)C)NN=C1c2ccccc2-c2ccccc21 [OF-06, 2-(N′-Fluoren-9-ylidene-hydrazino)-5,5-dimethyl-4-oxo-hex-2-enoic acid methyl ester] | highly soluble | – | > 3000 mg/kg | 82% | Solubility in ethanol, tetrachloromethane ([1]; ethanol, tetrachloromethane): slightly soluble; Solubility in hexane ([1]; hexane): insoluble; LD50 (white mice): >3000 mg/kg
4 | CCOc1ccc(C(=O)CC(O)(NN=C2c3ccccc3-c3ccccc32)C(=O)OC)cc1 (stereo not drawn) [OF-13, 4-(4-Ethoxy-phenyl)-2-(N′-fluoren-9-ylidene-hydrazino)-2-hydroxy-4-oxo-butyric acid methyl ester] | – | – | > 1500 mg/kg | 99% | Stability in solutions (Stability in solutions): not stable in solutions and decomposes quickly when the solution is heated or stored for a long time
5 | CCOc1ccc(/C(Cl)=C/C(=N\N=C2c3ccccc3-c3ccccc32)C(=O)OC)cc1 [3F-19, 4-Chloro-4-(4-ethoxy-phenyl)-2-(fluoren-9-ylidene-hydrazono)-but-3-enoic acid methyl ester] | – | – | – | 100% | LD50 (white mice): >200 mg/kg
6 | COC(=O)/C(=C/C(=O)c1ccccc1)N/N=C(\C)c1ccc(Cl)cc1 [OF-20, 2-{N′-[1-(4-Chloro-phenyl)-ethylidene]-hydrazino}-4-oxo-4-phenyl-but-2-enoic acid methyl ester] | highly soluble | insoluble | > 250 mg/kg | – | Solubility in chloroform [1]: highly soluble
7 | N[C@@H](Cc1ccc(N(CCCl)CCCl)cc1)C(=O)O [Melphalan] | – | – | – | – | Toxicity: LD50 in mice (mice): 23 mg/kg
8 | COC(=O)/C(=C/C(=O)c1ccccc1)NN=C1c2ccccc2-c2ccccc21 [1F-04, 2-(N′-Fluoren-9-ylidene-hydrazino)-4-oxo-4-phenyl-but-2-enoic acid methyl ester] | highly soluble | insoluble | > 1000 mg/kg | 93% | –
9 | COC(=O)C(=CC(=O)c1ccc(Cl)cc1)NN=C1c2ccccc2-c2ccccc21 [OF-07, 4-(4-Chloro-phenyl)-2-(N′-fluoren-9-ylidene-hydrazino)-4-oxo-but-2-enoic acid methyl ester] | highly soluble | insoluble | > 750 mg/kg | – | –
